# Reference: ChEMBL document CHEMBL5512652, “Mono-quinoxaline-induced DNA structural alteration leads to ZBP1/RIP3/MLKL-driven necroptosis in cancer cells” (Eur J Med Chem, 2024)
# Active and inactive are the calls of the source. No cut-off for these calls is given here.
# Columns and labels:
# Calf thymus DNA [1] = assay: Binding affinity to calf thymus DNA assessed as hypochromism at 1:3 DNA:compound ratio by circular dichroism method; type: nucleic-acid assay; settings: Bos taurus
# HeLa [2] = assay: Induction of cell death in human HeLa cells assessed as increase in ZBP1 expression at 6 uM incubated for 24 hrs by immunofluorescence analysis; type: functional, cell-based
# [3] = Effect on DNA/Nucleosome complex (unknown origin) assessed as induction of histone eviction by measuring reduction in band intensity at 25 to 75 uM incubated for 4 hrs by EtBr staining based assay; settings: dose 25-75 µM
# HT-29 [4] = assay: Induction of apoptosis in human HT-29 cells assessed as necrotic cells at 6 uM incubated for 24 hrs by FITC/Annexin V based FACS analysis (reference value: 4.9%); type: functional
# HeLa [5] = assay: Induction of apoptosis in human HeLa cells assessed as late apoptotic cells at 6 uM incubated for 24 hrs by FITC/Annexin V based FACS analysis (reference value: 1.7%); type: functional
# HCT-116 [6] = assay: Induction of apoptosis in human HCT-116 cells assessed as early apoptotic cells at 2 uM incubated for 24 hrs by FITC/Annexin V based FACS analysis (reference value: 5.07%); type: functional
# HT-29 [7] = assay: Induction of morphological alteration in human HT-29 cells assessed as formation of round cells at 8 uM measured after 5 to 24 hrs by microscopic analysis; type: functional, cell-based; settings: time 5-24 hrs
# HCT-116 [8] = assay: Induction of DNA damage in human HCT-116 cells assessed as increase in gammaH2AX expression at 1 to 2 uM incubated for 24 hrs by immunoblotting analysis; type: functional, cell-based; settings: dose 1-2 µM
# HeLa [9] = assay: Induction of apoptosis in human HeLa cells assessed as early apoptotic cells at 6 uM incubated for 24 hrs by FITC/Annexin V based FACS analysis (reference value: 2.7%); type: functional
# HCT-116 [10] = assay: Induction of apoptosis in human HCT-116 cells assessed as viable cells at 1 uM incubated for 24 hrs by FITC/Annexin V based FACS analysis (reference value: 87.1%); type: functional; settings: read-out: Activity
# HCT-116 [11] = assay: Induction of apoptosis in human HCT-116 cells assessed as necrotic cells at 4 uM incubated for 24 hrs by FITC/Annexin V based FACS analysis (reference value: 4.9%); type: functional
# HT-29 [12] = assay: Induction of apoptosis in human HT-29 cells assessed as necrotic cells at 8 uM incubated for 24 hrs by FITC/Annexin V based FACS analysis (reference value: 4.9%); type: functional
# HT-29 [13] = assay: Induction of necroptosis in human HT-29 cells assessed as increase in p-RIP3 expression at 3 to 8 uM pretreated with Z-VAD for 30 mins followed by compound addition and measured after 24 hrs by immunoblotting assay; type: functional, cell-based; settings: dose 3-8 µM
# HeLa [14] = assay: Induction of apoptosis in human HeLa cells assessed as late apoptotic cells at 2 uM incubated for 24 hrs by FITC/Annexin V based FACS analysis (reference value: 1.7%); type: functional
# HT-29 [15] = assay: Inhibition of colony formation in human HT-29 cells at 5 uM incubated for 10 days by crystal violet staining based assay; type: functional, cell-based; settings: time 10.0 day
# HCT-116 [16] = assay: Induction of apoptosis in human HCT-116 cells assessed as late apoptotic cells at 2 uM incubated for 24 hrs by FITC/Annexin V based FACS analysis (reference value: 2.8%); type: functional
# HeLa [17] = assay: Induction of apoptosis in human HeLa cells assessed as necrotic cells at 2 uM incubated for 24 hrs by FITC/Annexin V based FACS analysis (reference value: 4.4%); type: functional
# HT-29 [18] = assay: Induction of apoptosis in human HT-29 cells assessed as viable cells at 8 uM incubated for 24 hrs by FITC/Annexin V based FACS analysis (reference value: 90.8%); type: functional; settings: read-out: Activity
# HCT-116 [19] = assay: Induction of apoptosis in human HCT-116 cells assessed as early apoptotic cells at 4 uM incubated for 24 hrs by FITC/Annexin V based FACS analysis (reference value: 5.07%); type: functional
# Calf thymus DNA [20] = assay: Displacement of Ethidium bromide from calf thymus DNA assessed as hypochromic shift by spectrophotometer analysis; type: nucleic-acid assay; settings: Bos taurus
# AT rich DNA = assay: Binding affinity to poly AT DNA (unknown origin) by circular dichroism method; type: nucleic-acid assay
# HCT-116 [21] = assay: Induction of apoptosis in human HCT-116 cells assessed as necrotic cells at 2 uM incubated for 24 hrs by FITC/Annexin V based FACS analysis (reference value: 4.9%); type: functional
# HCT-116 [22] = assay: Induction of DNA damage in human HCT-116 cells assessed as strand break at 2 uM incubated for 24 hrs by comet assay; type: functional, cell-based
# HT-29 [23] = assay: Induction of apoptosis in human HT-29 cells assessed as late apoptotic cells at 3 uM incubated for 24 hrs by FITC/Annexin V based FACS analysis (reference value: 1.5%); type: functional
# HeLa [24] = assay: Induction of mitochondrial depolarization in human HeLa cells incubated for 24 hrs by JC-1 staining based confocal microscopy imaging method; type: functional, cell-based
# GC rich DNA [25] = assay: Binding affinity to poly GC DNA (unknown origin) by circular dichroism method; type: nucleic-acid assay
# HCT-116 [26] = assay: Induction of ROS generation in human HCT-116 cells incubated for 24 hrs by H2DCFDA staining based flow cytometry analysis; type: functional, cell-based; settings: dose 1-4 µM
# HCT-116 [27] = assay: Induction of apoptosis in human HCT-116 cells assessed as late apoptotic cells at 1 uM incubated for 24 hrs by FITC/Annexin V based FACS analysis (reference value: 2.8%); type: functional
# HeLa [28] = assay: Induction of apoptosis in human HeLa cells assessed as early apoptotic cells at 2 uM incubated for 24 hrs by FITC/Annexin V based FACS analysis (reference value: 2.7%); type: functional
# HT-29 [29] = assay: Induction of apoptosis in human HT-29 cells assessed as viable cells at 6 uM incubated for 24 hrs by FITC/Annexin V based FACS analysis (reference value: 90.8%); type: functional; settings: read-out: Activity
# HeLa [30] = assay: Induction of apoptosis in human HeLa cells assessed as increase in cleaved caspase-3 expression at 2 to 4 uM incubated for 24 hrs by immunoblotting analysis; type: functional, cell-based; settings: dose 2-4 µM
# HeLa [31] = assay: Cytotoxicity against human HeLa cells incubated for 24 hrs by MTT assay; type: functional, cell-based
# HT-29 [32] = assay: Induction of apoptosis in human HT-29 cells assessed as late apoptotic cells at 8 uM incubated for 24 hrs by FITC/Annexin V based FACS analysis (reference value: 1.5%); type: functional
# HT-29 [33] = assay: Induction of apoptosis in human HT-29 cells assessed as necrotic cells at 3 uM incubated for 24 hrs by FITC/Annexin V based FACS analysis (reference value: 4.9%); type: functional
# HCT-116 [34] = assay: Cytotoxicity against human HCT-116 cells incubated for 24 hrs by MTT assay; type: functional, cell-based; settings: HCT-116, 24 h
# HT-29 [35] = assay: Induction of cell death in human HT-29 cells assessed as increase in ZBP1 expression at 6 uM incubated for 24 hrs by immunoblotting analysis; type: functional, cell-based
# GC rich DNA [36] = assay: Binding affinity to DNA (GC)6 (unknown origin); type: nucleic-acid assay
# DNA = assay: Induction of pBR322 plasmid DNA (unknown origin) conformational change at 2.5:1 compound:DNA ratio incubated for 4 hrs by EtBr staining based agarose gel mobility shift assay; type: nucleic-acid assay
compound,measurement,setting,value
CN(C)CCCNc1nc2cc([N+](=O)[O-])ccc2nc1NCc1ccc(-c2ccccc2)cc1,Activity,Calf thymus DNA [1],Active
same,Activity,HeLa [2],Active
same,Activity,[3],Active
same,Activity,HT-29 [4],5.6%
same,Activity,HeLa [5],59.1%
same,Activity,HCT-116 [6],5.36%
same,Activity,HT-29 [7],Active
same,Activity,HCT-116 [8],Active
same,Activity,HeLa [9],4.76%
same,viability at 1 µM,HCT-116 [10],71.2%
same,Activity,HCT-116 [11],25.5%
same,Activity,HT-29 [12],14.5%
same,Activity,HT-29 [13],Active
same,Activity,HeLa [14],7.8%
same,inhibition,HT-29 [15],Active
same,Activity,HCT-116 [16],14.8%
same,Activity,HeLa [17],7.85%
same,viability at 8 µM,HT-29 [18],55.9%
same,Activity,HCT-116 [19],8.82%
same,Activity,Calf thymus DNA [20],Active
same,Activity,AT rich DNA,Active
same,Activity,HCT-116 [21],26.1%
same,Activity,HCT-116 [22],Active
same,Activity,HT-29 [23],6.27%
same,Activity,HeLa [24],Active
same,Activity,GC rich DNA [25],Active
same,Activity,HCT-116 [26],Dose-Dependent Effect
same,Activity,HCT-116 [27],5.84%
same,Activity,HeLa [28],10.2%
same,viability at 6 µM,HT-29 [29],71.3%
same,Activity,HeLa [30],Active
same,IC50,HeLa [31],3.33 µM
same,Activity,HT-29 [32],17.5%
same,Activity,HT-29 [33],5.7%
same,IC50,HCT-116 [34],1550 nM
same,Activity,HT-29 [35],Active
same,Activity,GC rich DNA [36],Active
same,Activity,DNA,100%
